According to patent US9227970B2, “Triazolopyridine compounds” (Hoffmann-La Roche Inc., priority 2011, dated 2016):

Tests used:
Salmonella = assay: Ames test (downscaled preincubation version); format: cell-based; conditions: downscaled standard preincubation Ames test
Protocol: Ames Test was performed as a downscaled version of the standard preincubation Ames test and adapted from the method described by Kado et al. with some modifications e.g. Maron. D. M. and B. N. Ames (1983). Revised methods for the Salmonella mutagenicity test. Mutation Research, 113, 173-215. N. Y. Kado, D. Langley and E. Eisenstadt A simple modification of the Salmonella liquid-incubation assay. Increased sensitivity for detecting mutagens in human urine, Mutat Res 121 (1983) 25-32.

human PDE10A = human PDE10A (Homo sapiens (Human), UniProt Q9Y233); assay: human PDE10A full length Scintillation Proximity Assay (SPA); format: biochemical; conditions: 50 nM cGMP + 50 nM [3H]-cGMP, 20 minutes at room temperature, read-out: PDE10A inhibition IC50
Protocol: The following test was carried out in order to determine the activity of the compounds of the present invention. […] The human PDE10A full length assay was performed in 96-well micro titer plates. […] A range of concentrations of the potential inhibitor was used to generate data for calculating the concentration of inhibitor resulting in 50% of the effect (e.g. […] Non-specific activity was tested without the enzyme. The reaction was initiated by the addition of the substrate solution (cGMP and [^3H]-cGMP) and allowed to progress for 20 minutes at room temperature. The reaction was terminated by adding 25 μl of YSi-SPA scintillation beads (GE Healthcare, cat. # RPNQ0150) in 18 mM zinc sulphate solution (stop reagent). […] Afterwards, radioactive counts were measured on a Perkin Elmer Top-Count Scintillation plate reader.

Sequence of human PDE10A (Q9Y233 other isoform, or with tags, fused parts or gaps): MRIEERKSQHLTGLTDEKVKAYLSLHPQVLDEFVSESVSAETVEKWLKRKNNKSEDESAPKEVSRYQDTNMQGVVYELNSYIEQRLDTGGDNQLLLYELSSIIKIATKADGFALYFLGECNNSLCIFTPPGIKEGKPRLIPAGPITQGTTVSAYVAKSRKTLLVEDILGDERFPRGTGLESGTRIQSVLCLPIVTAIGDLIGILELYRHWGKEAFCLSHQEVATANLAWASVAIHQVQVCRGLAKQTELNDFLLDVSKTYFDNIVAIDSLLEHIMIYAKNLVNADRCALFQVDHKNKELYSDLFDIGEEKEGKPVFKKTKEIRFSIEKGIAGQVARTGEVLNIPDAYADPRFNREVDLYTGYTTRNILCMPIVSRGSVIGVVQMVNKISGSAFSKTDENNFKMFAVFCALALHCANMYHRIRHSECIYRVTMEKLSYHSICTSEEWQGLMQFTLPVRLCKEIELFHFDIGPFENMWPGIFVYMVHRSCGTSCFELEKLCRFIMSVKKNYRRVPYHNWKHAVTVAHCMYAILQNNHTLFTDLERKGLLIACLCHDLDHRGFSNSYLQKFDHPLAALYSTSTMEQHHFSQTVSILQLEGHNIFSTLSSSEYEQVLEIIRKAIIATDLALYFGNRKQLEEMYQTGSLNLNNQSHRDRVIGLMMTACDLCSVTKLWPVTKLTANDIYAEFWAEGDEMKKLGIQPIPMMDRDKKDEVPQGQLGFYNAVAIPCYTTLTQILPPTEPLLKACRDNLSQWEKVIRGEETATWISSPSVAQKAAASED

Structure (SMILES) | Ames test (Salmonella) | IC50 (human PDE10A) | melting point
Cn1ncc(C(=O)N2CCC2)c1C(=O)Nc1ccc2nc(-c3ccccc3)nn2c1 [Example 3, 4-(Azetidine-1-carbonyl)-2-methyl-2H-pyrazole-3-carboxylic acid (2-phenyl-[1,2,4]triazolo[1,5-a]pyridin-6-yl)-amide] | negative | 0.6 nM | 235 to 236 °C
CN(C(=O)c1cnn(C)c1C(=O)Nc1ccc2nc(-c3cccnc3)nn2c1)C1CC1 [Example 11, N4-Cyclopropyl-N4,1-dimethyl-N5-(2-(pyridin-3-yl)-[1,2,4]triazolo[1,5-a]pyridin-6-yl)-1H-pyrazole-4,5-dicarboxamide] | negative | 6.7 nM | 237 °C
Cn1ncc(C(=O)N2CCOCC2)c1C(=O)Nc1ccc2nc(-c3ccccc3)nn2c1 [Example 5, 1-Methyl-4-(morpholine-4-carbonyl)-N-(2-phenyl-[1,2,4]triazolo[1,5-a]pyridin-6-yl)-1H-pyrazole-5-carboxamide] | negative | 2.5 nM | 183 to 185 °C
Cn1ncc(C(=O)N2CCC2)c1C(=O)Nc1ccc2nc(N3CCOCC3)nn2c1 [Example 15] | negative |  | 
CN(C)c1nc2ccc(NC(=O)c3c(C(=O)N4CCOCC4)cnn3C)cn2n1 [Example 19, 2-Methyl-4-(morpholine-4-carbonyl)-2H-pyrazole-3-carboxylic acid (2-dimethylamino-[1,2,4]triazolo[1,5-a]pyridin-6-yl)-amide] | negative | 36 nM | 
Cn1ncc(C(=O)N2CCOCC2)c1C(=O)Nc1ccc2nc(-c3cccnc3)nn2c1 [Example 9, 2-Methyl-4-(morpholine-4-carbonyl)-2H-pyrazole-3-carboxylic acid (2-pyridin-3-yl-[1,2,4]triazolo[1,5-a]pyridin-6-yl)-amide] |  | 13.2 nM | 229 °C
CN(C)c1nc2ccc(NC(=O)c3c(C(=O)N4CCC4)cnn3C)cn2n1 [Example 20, 4-(Azetidine-1-carbonyl)-2-methyl-2H-pyrazole-3-carboxylic acid (2-dimethylamino-[1,2,4]triazolo[1,5-a]pyridin-6-yl)-amide] | negative | 8.2 nM | 
Cn1ncc(C(=O)N2CC(F)C2)c1C(=O)Nc1ccc2nc(-c3ccccc3)nn2c1 [Example 6, 4-(3-Fluoro-azetidine-1-carbonyl)-2-methyl-2H-pyrazole-3-carboxylic acid (2-phenyl-[1,2,4]triazolo[1,5-a]pyridin-6-yl)-amide] |  | 1.5 nM | 243 °C
CN(C(=O)c1cnn(C)c1C(=O)Nc1ccc2nc(-c3ccccc3)nn2c1)C1CC1 [Example 8, 2-Methyl-2H-pyrazole-3,4-dicarboxylic acid 4-(cyclopropyl-methyl-amide) 3-[(2-phenyl-[1,2,4]triazolo[1,5-a]pyridin-6-yl)-amide]] |  | 0.9 nM | 106 °C
